According to patent US20220009920A1 (GB005, Inc., priority 2020, published 2022):

Assays:
Assay in all cases: Large panel kinase profiling
Assay type in all cases: biochemical
Settings in all cases: 1 μM test article, 1 mM ATP
[1] = target: T1, CDK18 (Homo sapiens, UniProt Q07002)
T1 construct: AssayQuant Technologies, Inc. (ran the panel)
Protocol: (§1) Large panel kinase profiling was performed at AssayQuant Technologies, Inc. 260 Cedar Hill Street, Marlborough, Mass. 01752 using the PhosphoSens® CSox-Sensor platform using 1 μM test article concentration and 1 mM ATP concentration (www.assayquant.com). Reactions were run in Corning, half-area 96-well, white flat round bottom polystyrene NBS microplates (Cat. #3642) after sealing using optically-clear adhesive film (TopSealA-Plus plate seal, PerkinElmer), applied with either a roller or a paddle to eliminate evaporation and resulting drift. The standard total reaction volume was 50 μL. All experiments were ran at 30° C. to control for fluctuations in ambient temperature. Plates were read from the top in kinetic mode (readings taken every 1 min), monitoring fluorescence intensity with filters using Ex 360 nm and Em 485 nm and a band width of 40 and 20 nm, respectively, and a gain of 80. Data analysis was performed using either Graphpad Prism or Gene Data Screener software.

[2] = target: T2, CDK2/A2 (Homo sapiens, UniProt P24941)
T2 construct: AssayQuant Technologies, Inc. (ran the panel)
Protocol: as §1

[3] = target: T3, EPHB2 (Homo sapiens, UniProt P29323)
T3 sequence (P29323 19-1055): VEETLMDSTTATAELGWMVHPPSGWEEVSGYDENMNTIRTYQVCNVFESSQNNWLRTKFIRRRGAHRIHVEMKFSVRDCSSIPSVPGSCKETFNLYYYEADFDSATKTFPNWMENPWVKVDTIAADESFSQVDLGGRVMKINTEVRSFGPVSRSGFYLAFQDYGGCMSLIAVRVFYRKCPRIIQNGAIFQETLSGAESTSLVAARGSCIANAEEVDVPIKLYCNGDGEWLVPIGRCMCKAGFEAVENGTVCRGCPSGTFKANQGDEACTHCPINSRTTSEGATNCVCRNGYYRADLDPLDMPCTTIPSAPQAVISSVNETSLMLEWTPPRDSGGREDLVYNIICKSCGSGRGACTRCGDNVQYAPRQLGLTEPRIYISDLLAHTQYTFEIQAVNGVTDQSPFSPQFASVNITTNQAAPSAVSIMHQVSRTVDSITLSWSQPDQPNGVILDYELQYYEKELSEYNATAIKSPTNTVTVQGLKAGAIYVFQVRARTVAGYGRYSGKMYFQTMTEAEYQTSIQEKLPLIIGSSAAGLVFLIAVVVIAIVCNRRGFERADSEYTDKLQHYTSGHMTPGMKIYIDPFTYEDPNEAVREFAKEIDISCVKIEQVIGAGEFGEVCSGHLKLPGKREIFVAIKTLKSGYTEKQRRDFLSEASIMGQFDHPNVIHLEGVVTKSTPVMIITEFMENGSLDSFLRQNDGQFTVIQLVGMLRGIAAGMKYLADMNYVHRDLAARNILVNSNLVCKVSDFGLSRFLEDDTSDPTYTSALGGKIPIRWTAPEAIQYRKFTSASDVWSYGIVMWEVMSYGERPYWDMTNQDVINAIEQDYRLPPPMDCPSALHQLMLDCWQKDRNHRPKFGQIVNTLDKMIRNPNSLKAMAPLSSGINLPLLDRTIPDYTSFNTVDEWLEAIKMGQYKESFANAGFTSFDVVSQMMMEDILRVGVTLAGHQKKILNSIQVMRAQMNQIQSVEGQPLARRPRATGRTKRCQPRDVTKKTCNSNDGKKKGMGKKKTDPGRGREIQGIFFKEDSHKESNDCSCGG
Protocol: as §1

[4] = target: T4, PRKD1 (Homo sapiens, UniProt Q15139)
T4 sequence (Q15139 1-912): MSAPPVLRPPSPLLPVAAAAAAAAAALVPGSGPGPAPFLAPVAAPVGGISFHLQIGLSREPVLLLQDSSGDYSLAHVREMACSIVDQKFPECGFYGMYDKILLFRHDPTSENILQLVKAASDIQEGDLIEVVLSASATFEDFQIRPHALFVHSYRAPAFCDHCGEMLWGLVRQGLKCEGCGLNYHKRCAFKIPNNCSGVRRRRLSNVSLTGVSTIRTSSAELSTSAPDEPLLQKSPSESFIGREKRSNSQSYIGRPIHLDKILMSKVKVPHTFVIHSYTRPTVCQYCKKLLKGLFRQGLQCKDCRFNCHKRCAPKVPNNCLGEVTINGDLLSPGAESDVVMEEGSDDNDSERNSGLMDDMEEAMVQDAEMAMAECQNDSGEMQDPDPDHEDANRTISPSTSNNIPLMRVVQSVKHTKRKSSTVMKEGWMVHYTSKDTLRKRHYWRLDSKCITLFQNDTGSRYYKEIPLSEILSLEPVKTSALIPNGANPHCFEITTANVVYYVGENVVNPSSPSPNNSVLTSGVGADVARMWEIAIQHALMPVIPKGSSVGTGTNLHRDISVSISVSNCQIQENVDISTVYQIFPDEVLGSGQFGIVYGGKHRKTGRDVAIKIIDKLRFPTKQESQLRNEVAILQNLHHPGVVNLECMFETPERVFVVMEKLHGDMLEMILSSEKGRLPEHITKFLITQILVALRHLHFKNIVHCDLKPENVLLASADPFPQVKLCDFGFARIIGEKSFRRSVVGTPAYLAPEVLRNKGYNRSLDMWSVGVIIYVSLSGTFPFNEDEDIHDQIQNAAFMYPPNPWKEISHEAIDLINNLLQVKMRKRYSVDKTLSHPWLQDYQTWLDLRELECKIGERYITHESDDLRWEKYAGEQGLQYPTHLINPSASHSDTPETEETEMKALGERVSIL
Protocol: as §1

T1 sequence (Q07002 whole entry, species assumed): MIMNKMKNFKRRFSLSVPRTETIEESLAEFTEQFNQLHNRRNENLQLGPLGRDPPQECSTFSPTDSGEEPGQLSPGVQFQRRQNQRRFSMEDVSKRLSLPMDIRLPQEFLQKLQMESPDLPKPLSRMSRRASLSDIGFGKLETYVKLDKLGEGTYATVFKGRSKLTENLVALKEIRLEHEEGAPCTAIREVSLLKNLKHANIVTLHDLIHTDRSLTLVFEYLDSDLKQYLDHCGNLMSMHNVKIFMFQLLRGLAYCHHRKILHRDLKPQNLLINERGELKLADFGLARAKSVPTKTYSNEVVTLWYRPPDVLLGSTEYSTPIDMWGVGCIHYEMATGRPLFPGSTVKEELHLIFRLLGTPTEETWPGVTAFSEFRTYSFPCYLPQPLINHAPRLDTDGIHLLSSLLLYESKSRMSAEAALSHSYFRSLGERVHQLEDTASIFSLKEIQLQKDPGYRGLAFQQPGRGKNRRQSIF
T1 sequence (Q8ND76 whole entry partner, species assumed): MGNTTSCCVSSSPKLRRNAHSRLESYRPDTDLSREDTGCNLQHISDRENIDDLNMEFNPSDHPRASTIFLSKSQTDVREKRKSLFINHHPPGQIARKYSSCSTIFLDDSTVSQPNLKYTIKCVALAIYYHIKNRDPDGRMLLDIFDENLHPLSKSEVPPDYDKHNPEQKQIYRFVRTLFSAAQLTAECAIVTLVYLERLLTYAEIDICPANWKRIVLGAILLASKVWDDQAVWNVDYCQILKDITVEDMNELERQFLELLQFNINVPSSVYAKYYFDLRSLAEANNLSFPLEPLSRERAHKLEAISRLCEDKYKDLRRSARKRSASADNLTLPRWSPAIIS

Compound	inhibition at 1 µM [1] [%]	inhibition at 1 µM [2] [%]	inhibition at 1 µM [3] [%]	inhibition at 1 µM [4] [%]
C=CC(=O)N1CCCC(c2c(F)cc(C(N)=O)c3[nH]c4c(c23)CCCCC4)C1 (single isomer, unassigned) [Compound 5-6]	19	-6.3	21.3	-6.6
C=CC(=O)N1CCC[C@@H](c2c(F)cc(C(N)=O)c3[nH]c4c(c23)CC2(CC4)CC2)C1 [Compound 6-2, (S)-5-(1-acryloylpiperidin-3-yl)-6-fluoro-1,2,4,9-tetrahydrospiro[carbazole-3,1′-cyclopropane]-8-carboxamide]	-15	5.6	11.8	-16
C=CC(=O)N1CCC[C@@H](c2c(F)cc(C(N)=O)c3[nH]c4c(c23)CCC4)C1 [Compound 10-2, (S)-8-(1-acryloylpiperidin-3-yl)-7-fluoro-1,2,3,4-tetrahydrocyclo-penta[b]indole-5-carboxamide]	2	2.3	0.9	-24.2
